Structures can show the parent of a compound that is named as a salt.
Assays:
[1] = tested on: NKX6.1-positive pancreatic endoderm cells derived from human iPS cells; assay: Screening of senescence-related reagents; type: cell-based
Experimental: FIG. 2-A A schematic diagram illustrating senescence-related reagent screening. […] After the elapse of one week, the cells were counted under a fluorescence microscope. Cells were differentiated to a pancreatic endoderm cell level using a stepwise differentiation-inducing method, and were then re-seeded on a 24-well plate at 2×10^5/well. The following culture media were added to these cultured cells, and the cells were cultured for 1 week. […] After fixed using 4% PFA, the cells were subjected to β-gal staining and NKX6.1 antibody immunostaining, and fluorescently stained images were acquired using BZ-800 (Keyence). The number of NKX6.1-positive cells, the NKX6.1-positive ratio, and the β-gal-positive ratio were calculated using the BZ-[…]/Macro Cell Count function of that microscope. FIGS. 2-A and 3-A show the outline of this procedure. A reagent enabling proliferation of pancreatic endoderm cells derived from human iPS cells was searched for in the senescence-related reagents. […] Then, (1) the number of NKX6.1-positive cells, or (2) the ratio of NKX6.1-positive cells and the ratio of β gal-positive cells were measured after the culture. FIGS. 2-B to 2-D show the results.

[2] = tested on: pancreatic endoderm cells (NKX6.1-positive); settings: added to medium containing Y-27632 50 μM, 6 days, FIG. 7
Experimental: The cells on Day 21 of expansion culture were cultured for 6 days using a culture medium obtained by adding various growth factors and small-molecule compounds to a culture medium for expansion culture containing Y-27632. The other conditions were the same as those of the screening of senescence-related reagents.
After passaged three times using a culture medium to which Y-27632 (50 μM) had been added, pancreatic endoderm cells were seeded on a 24-well plate coated with iMatrix at 2.0×10^5 cells/well. Each of screening reagents was added to the culture medium containing Y-27632 (50 μM), and then the cells were cultured. After 6 days, the ratio of NKX6.1-positive cells was checked through cell immunostaining.

[3] = tested on: PDX1+/NKX6.1+ pancreatic endoderm cells derived from human iPS cells; assay: Examination of other ROCK inhibitors for proliferating pancreatic endoderm cells; type: cell-based; settings: 1 week, FIGS. 3-B and 3-C
Experimental: FIG. 3-A A schematic diagram illustrating an experiment of examining other ROCK inhibitors. […] After the elapse of one week, the cells were counted under a fluorescence microscope.
Cells were differentiated to a pancreatic endoderm cell level using a stepwise differentiation-inducing method, and were then re-seeded on a 24-well plate at 2×10^5/well. The following culture media were added to these cultured cells, and the cells were cultured for 1 week. The culture medium for the Control group was improved MEM to which 0.5×B-27 Supplement, 100 U/ml penicillin/streptomycin, 100 ng/ml KGF/FGF7, 50 ng/ml EGF, and 10 mM nicotinamide had been added. […] After fixed using 4% PFA, the cells were subjected to β-gal staining and NKX6.1 antibody immunostaining, and fluorescently stained images were acquired using BZ-800 (Keyence). The number of NKX6.1-positive cells, the NKX6.1-positive ratio, and the β-gal-positive ratio were calculated using the BZ-H4CM/Macro Cell Count function of that microscope. FIGS. 2-A and 3-A show the outline of this procedure.
The experiments were conducted in the same manner as in Example 1. FIGS. 3-B and 3-C show the results.

Structure (SMILES)	effect of proliferating pancreatic endoderm cells (total cells, NKX6.1-positive cells) [3]	further results
CC1(C)CCC(c2ccc(Cl)cc2)=C(CN2CCN(c3ccc(C(=O)NS(=O)(=O)c4ccc(N[C@H](CCN5CCOCC5)CSc5ccccc5)c(S(=O)(=O)C(F)(F)F)c4)cc3)CC2)C1 [ABT263]		ratio of β gal-positive cells (senescent cells) ([1]; 1 week, FIG. 2-D): reduction in the ratio of β gal-positive cells; cause inferred for the reduction in β gal-positive ratio ([1]; inferred from FIG. 2-B and 2-D): toxicity
Cc1cccc(-c2n[nH]cc2-c2ccc3ncccc3n2)n1 [ALK5 inhibitor, 2-[3-[6-methylpyridin-2-yl]-1H-pyrazol-4-yl]-1,5-naphthyridine]		ratio of NKX6.1-positive cells (screening outcome) [2]: identified as candidates for a factor for improving expansion culture
O=S(=O)(c1cccc2cnccc12)N1CCCNCC1 [Fasudil hydrochloride]	exhibited the effect of proliferating pancreatic endoderm cells	
CCn1c(-c2nonc2N)nc2cnc(Oc3cccc(NC(=O)c4ccc(OCCN5CCOCC5)cc4)c3)cc21 [GSK269962]	exhibited the effect of proliferating pancreatic endoderm cells	
CC1=C(C(=O)Nc2cc3cn[nH]c3cc2F)C(c2ccc(C(F)(F)F)cc2)CC(=O)N1 (centres unmarked) [GSK429286A]	exhibited the effect of proliferating pancreatic endoderm cells	
Cc1cncc2cccc(S(=O)(=O)N3CCCNC[C@@H]3C)c12 [H1152]	exhibited the effect of proliferating pancreatic endoderm cells	
O=C(NCc1ccccc1)c1csc(Nc2ccncn2)n1 [Thiazovivin]	exhibited the effect of proliferating pancreatic endoderm cells	

Reference: patent US20260097083A1, “METHOD FOR PRODUCING PANCREATIC ENDODERM CELLS” (Kyoto University, priority 2022, published 2026)
